Experimental data reported in patent US8882877B2, “Boron-containing synergistic urea and preparation method and application thereof” (Beijing J-Tec Technology Co., Ltd, priority 2012, dated 2014).

Experiments:
bacterial wilt = assay: Tomato disease resistance: incidence of bacterial wilt; format: in vivo; conditions: tomato plants in test area vs control area (ck)
Description: (§1) 1. The tested fertilizer is the boron-containing synergistic urea developed and supplied by Beijing J-Tec Technology Co., Ltd. (the boron-containing synergistic urea (1) in Embodiment 3, under a trade name of “polypeptide chelated potassium”) while the control fertilizer is ordinary small granular urea and large granular urea in line with national standards; the tested vegetable is tomato (variety of “Millennium”, ? ).
(§2) 2. Test Method: equivalent fertilizer test area and decrement fertilizer test area are arranged, two treatment areas are provided in each test area, and each treatment area is arranged repeatedly for 3 times, ranked in random area and group, each treatment area has an area of 20 m^2 (5 m long, 4 m wide).
1. Tomato Growing Potential and Disease Resistance

soybean = assay: Soybean fertilizer field plot test; format: in vivo
Description: Test One: Soybean Fertilizer Test During the process of growth, the moisture and temperature are basically normal, which have no particular influence on the test. The basic information for the test plot is: mound albic soil, organic matter content 3.73%, and thickness of black soil layer is 18-20 cm, 1. The tested fertilizer is the boron-containing synergistic urea developed and supplied by Beijing J-Tec Technology Co., Ltd. (the boron-containing synergistic urea (1) in Embodiment 3) while the control fertilizer is ordinary urea available in the market. 2. Field tests adopt plot test (the test plot is located in Haluo Town, […], Shandong Province), three test areas are provided, each test area is divided into three treatment areas, each treatment area is 25.2 m^2, and the three test areas are tested in parallel. Apply base fertilizers uniformly in each test area and sow 4 rows in each treatment area, and subsequently apply additional fertilizers in the three treatment areas as below: Treatment Area 1: additionally apply 5 kg boron-containing synergistic urea once per mu in the flowering and pod bearing period of the soybean; Treatment Area 2: additionally apply 4 kg boron-containing synergistic urea once per mu in the flowering and pod bearing period of the soybean; Treatment Area 3 (control area, ck): additionally apply 5 kg ordinary urea once per mu in the flowering and pod bearing period of the soybean as a control; 4. Adopt normal field management in the growth period of the soybean, harvest and monitor the yield in the mature period respectively, and take the average values of the corresponding treatment areas in the three test areas as the statistical results, see Table 1.

rape = assay: Rape fertilizer test (topdressing); format: in vivo; conditions: topdressing 20 kg per mu
Description: Test Two: Rape Fertilizer Test 1. Test Material: The tested fertilizer is the boron-containing synergistic urea developed and supplied by Beijing J-Tec Technology Co., Ltd. (the boron-containing synergistic urea (1) in Embodiment 3) while the control fertilizer is ordinary urea available in the market. Nanyang site: Yuanxiang Village, Nanyang Town, Qidong City of Jiangsu Province, an area of 4 mu, rape variety is “Shi Li Jia ? )”. Lvsi site: Nanxinqiao Village, […] Town, Qidong City, an area of 5 mu. 3. Test Method: the boron-containing synergistic urea is used as a topdressing fertilizer (additional fertilizer), 20 kg per mu; while the control field adopts ordinary urea (commercially available), 20 kg per mu. 4. Assessment Content: prior to harvest, field assessments such as density, plant height, effective branch, yield structure are conducted; after harvest, recount the actual yield, and the results are shown in Table 3.

apple tree = assay: Apple tree fertilizer test (equivalent and decrement fertilizer); format: in vivo, apple tree (Red Fuji apple); conditions: Control Test Area, ordinary urea 70 kg per mu
Description: Test Five: Apple Tree Fertilizer Test 1. Test Fertilizer: the tested fertilizer is the boron-containing synergistic urea developed and supplied by Beijing J-Tec Technology Co., Ltd. (the boron-containing synergistic urea (1) in Embodiment 3) while the control fertilizer is ordinary small granular urea and large granular urea in line with national standards the tested fruit tree is apple tree (variety of “Red Fuji apple”, ? ). 2. Test Site: […], Shandong Province, 3. Tested Variety: apple tree of four years old, variety is Red Fuji apple, planting space is 2 m×3 m, plants with moderate growth, similar tree vigor, and substantially consistent yield, and conventional orchard management is conducted before the test. 4. Test Method: equivalent fertilizer test area and decrement fertilizer test area are arranged, two treatment areas are provided in each test area, 3 tested plants are included in each treatment area and each treatment area is arranged repeatedly for 3 times, ranked in random area and group; The fertilizer is applied in small holes near the plants, and the fertilizing periods are fertilizer application after leaves falling in autumn and additional fertilizer application during fruit expanding period (July and August). Treatment Area 1: the boron-containing synergistic urea is applied, calculated by 70 kg per mu, and flushed together with water; Treatment Area 2: ordinary small granular urea (as a control area, ck), calculated by 70 kg per mu, and flushed together with water. Treatment Area 1: the boron-containing synergistic urea is applied with a decrement of 20%, calculated by 56 kg per mu, base fertilizer and additional fertilizer each makes up 50%; Treatment Area 2: ordinary large granular urea (as a control area, ck), calculated by 70 kg per mu, base fertilizer and additional fertilizer each makes up 50%. Make statistical analysis to flowering numbers and petal numbers in each flower during full-blossom period in spring, and make statistical analysis to fruit setting percentage after full-blossom period and before flower thinning. Measure and record once a month after growth of new shoots; Pick 30 fruits randomly from different portions after fruit ripening, and weigh the single fruit with an electronic balance scale, measure the longitudinal diameter and the transverse diameter with a vernier caliper; observe the fruit surface and the coloring of the fruit; determine the hardness of fruit with a hardometer.

tomato = assay: Tomato fertilizer test (equivalent and decrement fertilizer); format: in vivo
Description: Test Four: Tomato Fertilizer Test
Test Site Laiyang: City, Shandong Province.
Grow seedling in greenhouse at Feb. 24, 2011, and plant in the greenhouse with a tomato plantation density of 4200 plant/mu.
as §1, §2
Treatment Area 1: the boron-containing synergistic urea is applied, calculated by 70 kg per mu, and flushed together with water after emergence of seedlings;
Treatment Area 2: ordinary small granular urea (as a control area, ck), calculated by 70 kg per mu, and flushed together with water after emergence of seedlings.
Treatment Area 1: the boron-containing synergistic urea is applied with a decrement of 20%, calculated by 56 kg per mu, base fertilizer and additional fertilizer each makes up 50%;
Treatment Area 2: ordinary large granular urea (as a control area, ck), calculated by 70 kg per mu, base fertilizer and additional fertilizer each makes up 50%.
3. Test Requirement: The tomato in each treatment area is harvested, weighed, and calculated separately during each collection and harvest. No other fertilizer is applied during the whole test period, and other cultivation and management measures are the same.
Select one plot (12 plots in total, indicated as 1st plot, 2nd plot and 3rd plot corresponding to each test) randomly from each treatment area 1 and treatment area 2 (control area) respectively, all are 1 m long, 1.45 m wide, and the harvested tomato is weighed on site, and results are as follows: […]

celery = assay: Celery fertilizer test (equivalent and decrement fertilizer); format: in vivo
Description: Test Three: Celery Fertilizer Test 1. Test material: The tested fertilizer is the boron-containing synergistic urea developed and supplied by Beijing J-Tec Technology Co., Ltd. (the boron-containing synergistic urea (1) in Embodiment 3) while the control fertilizer is ordinary small granular urea and large granular urea in line with national standards: the tested vegetable is celery. Area under jurisdiction of […], Shandong Province 3. Test Method: equivalent fertilizer test area and decrement fertilizer test area are arranged, two treatment areas are provided in each test area, and each treatment area is arranged repeatedly for 3 times, ranked in random area and group. Treatment Area 1: the boron-containing synergistic urea is applied, calculated by 70 kg per mu, and flushed together with water after emergence of seedlings; Treatment Area 2: ordinary small granular urea (as a control area, ck), calculated by 70 kg per mu, and flushed together with water after emergence of seedlings. Treatment Area 1: the boron-containing synergistic urea is applied with a decrement of 20%, calculated by 56 kg per mu, base fertilizer and additional fertilizer each makes up 50%; Treatment Area 2: ordinary large granular urea, calculated by 70 kg per mu, base fertilizer and additional fertilizer each makes up 50%. 4. Test Requirement: The celery in each treatment area is harvested, weighed, and calculated separately during each collection and harvest. No other fertilizer is applied during the whole test period, and other cultivation and management measures are the same.

[1] = Treatment Area 1 / 3 (ck): 5 kg per mu
[2] = Treatment Area 1 / 3 (ck): 5 kg per mu once in flowering and pod bearing period
[3] = Lvsi site, two months after fertilizer application
[4] = Nanyang site, two months after fertilizer application
[5] = Equivalent fertilizer test and its control, 70 kg per mu
[6] = Equivalent fertilizer test and its control, 70 kg per mu, flushed with water
[7] = Decrement fertilizer test (56 kg per mu) and its control (70 kg per mu)
[8] = Decrement fertilizer test (synergistic urea 56 kg per mu) and its control (large granular urea 70 kg per mu)

NC(N)=O [ordinary urea, urea]
incidence of bacterial wilt (bacterial wilt): 4.54%
Practical Yield (soybean; [1]): 131.8 kg/mu
Theoretical Yield (soybean; [1]): 134.5 kg/mu
100-Grain Weight (soybean; [2]): 15.7 g
Diseased Grain Rate (soybean; [2]): 9.7%
Grains Weight (soybean; [2]): 7.5 g/Plant
Grains per Plant (soybean; [2]): 65.8 Grains/Plant
Plant Height (soybean; [2]): 77.4 cm
Unfilled Grains (soybean; [2]): 28.9 Grains/Plant
Worm Eaten Rate (soybean; [2]): 17.9%
pods per plant (soybean; [2]): 30.1 Pods/Plant
1000-Grain Weight (rape; Average of the two test sites): 4.1 g
Density (rape; Average of the two test sites): 5550 plant
Effective Branch (rape; Average of the two test sites): 27 each
Grains per pod (rape; Average of the two test sites): 19.8 grain
Plant Height (rape; Average of the two test sites): 190.5 cm
Yield (rape; Average of the two test sites): 262.7 kg/mu
pods per plant (rape; Average of the two test sites): 583 pod
Yield (rape; Lvsi site): 251.7 kg/mu
1000-Grain Weight (rape; [3]): 3.7 g
Density (rape; [3]): 5550 plant
Effective Branch (rape; [3]): 26 each
Grains per pod (rape; [3]): 20.5 grain
Plant Height (rape; [3]): 185 cm
pods per plant (rape; [3]): 598 pod
Yield (rape; Nanyang site): 269.5 kg/mu
1000-Grain Weight (rape; [4]): 4.5 g
Density (rape; [4]): 5550 plant
Effective Branch (rape; [4]): 28 each
Grains per pod (rape; [4]): 19 grain
Plant Height (rape; [4]): 196 cm
pods per plant (rape; [4]): 568 pod
Fruit Setting Percentage (apple tree): 74.6%
Increment of New Shoots (apple tree): 34.50 cm
Leaf Weight (apple tree): 79.74 g
Single Fruit Weight (apple tree): 202.1 g

NC(N)=O [ordinary small granular urea, urea]
Average Yield among three plots (tomato; [5]): 114.5 kg
Average Yield per mu (tomato; [5]): 3863.3 kg
Yield 1st plot (tomato; [6]): 111.6 kg
Yield 2nd plot (tomato; [6]): 113.8 kg
Yield 3rd plot (tomato; [6]): 118.0 kg
Yield (celery; Equivalent fertilizer test, 70 kg per mu, 1st plot (1 m x 1.45 m), 52 days after applying fertilizer): 6.6 kg
Yield (celery; Equivalent fertilizer test, 70 kg per mu, 2nd plot, 52 days after applying fertilizer): 7.5 kg
Yield (celery; Equivalent fertilizer test, 70 kg per mu, 3rd plot, 52 days after applying fertilizer): 8.15 kg
Yield (celery; Equivalent fertilizer test, 70 kg per mu, three plots in total): 22.25 kg

NC(N)=O [ordinary large granular urea, urea]
Average Yield among three plots (tomato; [7]): 116.0 kg
Average Yield per mu (tomato; [7]): 3896.7 kg
Yield 1st plot (tomato; [8]): 114.3 kg
Yield 2nd plot (tomato; [8]): 118.1 kg
Yield 3rd plot (tomato; [8]): 115.6 kg
Yield (celery; 20% decrement fertilizer test, 1st plot, synergistic urea 56 kg per mu, control large granular urea 70 kg per mu): 6.8 kg
Yield (celery; 20% decrement fertilizer test, 2nd plot, synergistic urea 56 kg per mu, control large granular urea 70 kg per mu): 6.0 kg
Yield (celery; 20% decrement fertilizer test, 3rd plot, synergistic urea 56 kg per mu, control large granular urea 70 kg per mu): 5.7 kg
Yield (celery; 20% decrement fertilizer test, three plots in total, synergistic urea 56 kg per mu, control 70 kg per mu): 18.5 kg
observation of celery leaves (celery; Decrement fertilizer test, 30 days after sowing): green and thin leaves
